Active and inactive are the calls of the source.
Key:
[1] = Intein inhibitors as potential Tuberculosis drugs, a cytotoxicity screen. [Related pubchem assays (depositor defined):AID2221, AID2223, AID434968, AID435010, AID449749, AID449750, AID489010]; format: functional
[2] = target: Benomyl/methotrexate resistance protein (Candida albicans, UniProt P28873); assay: Candida albicans Mdr1 pump inhibition curves – singleplex, Cherry Pick1 hits, dose response (AID 588608); format: functional
Protein RecA = target: T1, Protein RecA (Mycobacterium tuberculosis, UniProt P9WHJ3); assay: Fluorescence Cell-Free Homogeneous Dose Retest to Identify Inhibitors of RecA-Intein Splicing Activity. [Related pubchem assays (depositor defined):AID2097, AID2223, AID489010, AID492950]; format: functional
T1 sequence (P9WHJ3 whole entry): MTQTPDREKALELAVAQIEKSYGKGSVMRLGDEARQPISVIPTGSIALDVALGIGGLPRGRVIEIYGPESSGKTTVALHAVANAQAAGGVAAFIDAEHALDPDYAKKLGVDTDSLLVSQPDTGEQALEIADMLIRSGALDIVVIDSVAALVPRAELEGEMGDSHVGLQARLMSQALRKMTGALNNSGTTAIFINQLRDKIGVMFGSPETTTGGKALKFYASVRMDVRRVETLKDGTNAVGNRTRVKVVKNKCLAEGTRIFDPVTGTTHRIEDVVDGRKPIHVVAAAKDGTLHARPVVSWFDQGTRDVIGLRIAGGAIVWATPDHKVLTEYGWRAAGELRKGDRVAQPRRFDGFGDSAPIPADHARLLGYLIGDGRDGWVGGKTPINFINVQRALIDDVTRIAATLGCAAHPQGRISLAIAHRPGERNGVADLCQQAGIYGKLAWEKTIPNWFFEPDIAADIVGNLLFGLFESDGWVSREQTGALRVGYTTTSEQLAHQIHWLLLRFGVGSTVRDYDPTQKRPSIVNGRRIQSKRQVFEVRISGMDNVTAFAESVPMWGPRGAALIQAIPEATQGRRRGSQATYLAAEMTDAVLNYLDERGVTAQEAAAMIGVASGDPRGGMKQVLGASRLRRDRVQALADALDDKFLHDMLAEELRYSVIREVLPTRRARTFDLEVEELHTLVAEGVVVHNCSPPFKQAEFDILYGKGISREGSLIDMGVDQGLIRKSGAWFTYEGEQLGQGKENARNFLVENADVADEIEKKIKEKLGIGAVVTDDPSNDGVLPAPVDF

[3] = target: T2, Replicative DNA helicase DnaB (Mycobacterium tuberculosis, UniProt P9WMR3); assay: DnaB intein splicing inhibitors, dose response, biochemical, cell-free fluorescence (AID 449749); format: functional
T2 sequence (P9WMR3 whole entry): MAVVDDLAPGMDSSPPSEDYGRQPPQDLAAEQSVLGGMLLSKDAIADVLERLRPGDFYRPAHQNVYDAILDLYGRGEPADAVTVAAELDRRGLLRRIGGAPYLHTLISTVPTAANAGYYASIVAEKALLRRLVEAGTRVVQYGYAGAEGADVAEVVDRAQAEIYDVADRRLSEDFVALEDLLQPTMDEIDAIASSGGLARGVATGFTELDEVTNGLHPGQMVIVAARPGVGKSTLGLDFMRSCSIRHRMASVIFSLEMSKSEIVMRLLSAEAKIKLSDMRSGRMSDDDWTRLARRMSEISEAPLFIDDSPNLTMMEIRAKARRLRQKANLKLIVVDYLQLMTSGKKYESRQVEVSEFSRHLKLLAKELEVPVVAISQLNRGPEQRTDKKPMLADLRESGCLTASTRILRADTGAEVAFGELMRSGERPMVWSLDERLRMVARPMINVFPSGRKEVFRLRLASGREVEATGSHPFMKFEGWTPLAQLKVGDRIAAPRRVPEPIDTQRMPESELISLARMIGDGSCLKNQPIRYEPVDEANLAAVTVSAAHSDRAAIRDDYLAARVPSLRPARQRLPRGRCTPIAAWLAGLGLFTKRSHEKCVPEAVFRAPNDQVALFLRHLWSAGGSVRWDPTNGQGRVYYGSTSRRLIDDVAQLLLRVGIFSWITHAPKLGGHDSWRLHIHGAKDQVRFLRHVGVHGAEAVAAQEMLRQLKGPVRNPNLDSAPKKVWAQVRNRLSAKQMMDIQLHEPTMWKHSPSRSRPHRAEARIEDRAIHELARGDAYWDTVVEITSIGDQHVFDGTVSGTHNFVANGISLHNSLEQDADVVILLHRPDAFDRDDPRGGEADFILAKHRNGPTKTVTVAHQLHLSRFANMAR

Vero = assay: cells; format: functional; conditions: Chlorocebus sabaeus
[4] = HEK-293T cell viability reduction – luminescence, B-cell screen hits, cytotoxicity control for BCR NF-kB inhibitor project, dose response (AID 489021); format: functional, cell-based;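 note: HEK-293T cells carrying an NF-kB luciferase reporter; cells exposed to compound for about 14 hours before viability readout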
[5] = Luminescent dose response cell-based high throughput screening assay for inhibitors of the Janus kinase 2 mutant JAK2V617F. [Related pubchem assays: 1446 (Primary screen.), 1521 (Confirmation assay.), 1486 (Counter screen.)]; format: functional
[6] = target: T3, Microphthalmia-associated transcription factor (Homo sapiens, UniProt O75030); assay: reducers of TRPM1 reporter luminescence, concentration series – cell-based, SK-MEL-5, cherry-picked, set 3, MITF inhibitor project, dose response (AID 493073); format: functional;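 note: SK-MEL-5 melanoma cells with luciferase driven by the MITF target TRPM1 promoter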
T3 sequence (O75030 whole entry): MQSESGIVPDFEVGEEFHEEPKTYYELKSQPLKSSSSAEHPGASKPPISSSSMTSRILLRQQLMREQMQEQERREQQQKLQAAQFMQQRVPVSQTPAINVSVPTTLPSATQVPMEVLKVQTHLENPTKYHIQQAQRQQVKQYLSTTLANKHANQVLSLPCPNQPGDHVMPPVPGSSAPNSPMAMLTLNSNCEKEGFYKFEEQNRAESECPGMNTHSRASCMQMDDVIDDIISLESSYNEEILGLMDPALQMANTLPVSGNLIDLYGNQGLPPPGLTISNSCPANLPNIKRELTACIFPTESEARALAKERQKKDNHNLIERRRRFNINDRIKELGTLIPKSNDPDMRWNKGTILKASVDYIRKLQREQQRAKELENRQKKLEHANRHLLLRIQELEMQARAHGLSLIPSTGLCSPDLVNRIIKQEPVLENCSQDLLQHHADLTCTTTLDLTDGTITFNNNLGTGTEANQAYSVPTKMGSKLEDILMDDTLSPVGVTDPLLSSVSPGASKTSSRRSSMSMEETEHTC

[7] = target: T3, Microphthalmia-associated transcription factor; assay: reducers of TRPM1 reporter luminescence, concentration series – cell-based, SK-MEL-5, cherry-picked, set 4, MITF inhibitor project, dose response (AID 493102); format: functional
[8] = target: T3, Microphthalmia-associated transcription factor; assay: MITF Measured in Cell-Based System Using Plate Reader - 2084-01_Inhibitor_DoseNoFile_CherryPick_Activity_Set2. [Related pubchem assays (depositor defined):AID488944]; format: functional
[9] = target: Sphingosine 1-phosphate receptor 4 (Homo sapiens, UniProt O95977); assay: potency of S1P4 activators – cell-based, fluorescence, synthesized compounds, late-stage follow-up (AID 463107); format: functional
Sequence of Sphingosine 1-phosphate receptor 4 (O95977 whole entry): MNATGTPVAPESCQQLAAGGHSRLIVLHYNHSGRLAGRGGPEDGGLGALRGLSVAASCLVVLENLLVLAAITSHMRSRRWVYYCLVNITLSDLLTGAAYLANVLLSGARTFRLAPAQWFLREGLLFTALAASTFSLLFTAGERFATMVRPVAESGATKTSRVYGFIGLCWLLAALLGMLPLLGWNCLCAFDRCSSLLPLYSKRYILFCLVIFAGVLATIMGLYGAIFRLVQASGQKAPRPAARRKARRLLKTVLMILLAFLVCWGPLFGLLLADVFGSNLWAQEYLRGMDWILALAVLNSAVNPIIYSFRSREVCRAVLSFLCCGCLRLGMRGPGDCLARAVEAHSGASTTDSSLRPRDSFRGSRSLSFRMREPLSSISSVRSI

BJ [10] = assay: BJ-TERT-LT-ST fibroblast viability loss – cell-based, RAS-independent, luminescence, dose response (AID 1935); format: functional; conditions: Homo sapiens;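 note: BJ fibroblasts immortalized with TERT plus LT and ST oncogenes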
[11] = target: T4, Type-1 angiotensin II receptor (Homo sapiens, UniProt P30556); assay: agonist activity at AGTR1 – cell-based, uHTS hits, selectivity assay for APJ receptor agonist project, dose response (AID 488865); format: functional;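 note: beta-arrestin recruitment to AT1 measured by enzyme fragment complementation luminescence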
T4 sequence (P30556 whole entry): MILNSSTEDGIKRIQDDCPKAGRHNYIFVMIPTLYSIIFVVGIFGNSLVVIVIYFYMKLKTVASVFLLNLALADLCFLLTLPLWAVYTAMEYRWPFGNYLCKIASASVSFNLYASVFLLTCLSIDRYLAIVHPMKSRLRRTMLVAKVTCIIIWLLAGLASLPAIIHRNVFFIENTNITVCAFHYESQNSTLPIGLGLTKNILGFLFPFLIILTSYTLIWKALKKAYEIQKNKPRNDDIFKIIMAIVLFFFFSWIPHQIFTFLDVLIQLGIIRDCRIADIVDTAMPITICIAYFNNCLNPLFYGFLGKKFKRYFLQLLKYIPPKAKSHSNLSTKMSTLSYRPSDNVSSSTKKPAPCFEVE

BJ [12] = assay: cells; format: functional, cell-based; conditions: Homo sapiens
BJ [13] = assay: BJ-TERT fibroblast viability loss – cell-based, RAS-independent, luminescence, dose response (AID 1933); format: functional; conditions: Homo sapiens
[14] = target: T5, Ubiquitin-conjugating enzyme E2 N (Homo sapiens, UniProt P61088); format: functional
T5 sequence (P61088 whole entry): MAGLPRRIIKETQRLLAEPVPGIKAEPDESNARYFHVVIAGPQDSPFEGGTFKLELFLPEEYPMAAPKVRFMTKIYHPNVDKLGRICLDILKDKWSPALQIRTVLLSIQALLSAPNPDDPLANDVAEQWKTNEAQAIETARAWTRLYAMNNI

[15] = target: T5, Ubiquitin-conjugating enzyme E2 N; format: functional; remark: listed apart in the source
Bcl-2-related protein A1 = target: T6, Bcl-2-related protein A1 (Mus musculus, UniProt Q07440); format: functional;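 note: confirmatory dose–response counterscreen on Bfl-1, used to check hits from a UBC13 polyubiquitin inhibitor campaign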
T6 sequence (Q07440 whole entry): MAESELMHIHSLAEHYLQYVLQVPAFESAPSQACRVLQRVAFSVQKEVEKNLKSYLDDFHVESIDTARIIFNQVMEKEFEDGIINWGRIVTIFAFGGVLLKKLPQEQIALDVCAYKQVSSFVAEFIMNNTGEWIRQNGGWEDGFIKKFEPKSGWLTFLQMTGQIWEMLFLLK

[16] = DRD fibroblast viability loss – cell-based, non-viral oncogenic, luminescence, dose response (AID 1934); format: functional; conditions: Homo sapiens
Paired box protein Pax-8 = Paired box protein Pax-8 (Homo sapiens, UniProt Q06710); assay: PAX8 transcriptional activity inhibition in RMG-I – RMG-I cells, luciferase, cherry-pick, dose response (AID 687027); format: functional, cell-based;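 note: luciferase reporter driven by Pax8 target thyroperoxidase promoter measured by SteadyGlo luminescence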
Sequence of Paired box protein Pax-8 (Q06710 whole entry): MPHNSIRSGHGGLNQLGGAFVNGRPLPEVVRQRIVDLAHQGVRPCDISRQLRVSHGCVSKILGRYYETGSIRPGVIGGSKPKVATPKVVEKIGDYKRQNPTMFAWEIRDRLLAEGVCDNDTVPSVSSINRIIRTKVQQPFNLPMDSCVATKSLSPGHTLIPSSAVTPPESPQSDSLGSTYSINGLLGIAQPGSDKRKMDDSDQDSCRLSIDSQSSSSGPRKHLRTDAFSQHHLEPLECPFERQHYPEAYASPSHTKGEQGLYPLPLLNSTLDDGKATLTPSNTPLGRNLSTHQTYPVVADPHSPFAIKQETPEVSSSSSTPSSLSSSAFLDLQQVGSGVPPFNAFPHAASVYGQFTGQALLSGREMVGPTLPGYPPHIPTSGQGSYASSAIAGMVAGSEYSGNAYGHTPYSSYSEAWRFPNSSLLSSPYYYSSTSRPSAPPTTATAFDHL

[17] = target: T7, Heat shock factor protein 1 (Mus musculus, UniProt P38532); assay: decrease of HSF1-responsive luciferase luminescence – cell-based, NIH3T3, dose retest, confirmation (AID 2382); format: functional;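 note: NIH3T3 fibroblasts with HSF1-driven luciferase reporter stressed by proteasome inhibitor MG132; luminescence from HSF1-driven luciferase expression after 8 hours of MG132 stress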
T7 sequence (P38532 whole entry): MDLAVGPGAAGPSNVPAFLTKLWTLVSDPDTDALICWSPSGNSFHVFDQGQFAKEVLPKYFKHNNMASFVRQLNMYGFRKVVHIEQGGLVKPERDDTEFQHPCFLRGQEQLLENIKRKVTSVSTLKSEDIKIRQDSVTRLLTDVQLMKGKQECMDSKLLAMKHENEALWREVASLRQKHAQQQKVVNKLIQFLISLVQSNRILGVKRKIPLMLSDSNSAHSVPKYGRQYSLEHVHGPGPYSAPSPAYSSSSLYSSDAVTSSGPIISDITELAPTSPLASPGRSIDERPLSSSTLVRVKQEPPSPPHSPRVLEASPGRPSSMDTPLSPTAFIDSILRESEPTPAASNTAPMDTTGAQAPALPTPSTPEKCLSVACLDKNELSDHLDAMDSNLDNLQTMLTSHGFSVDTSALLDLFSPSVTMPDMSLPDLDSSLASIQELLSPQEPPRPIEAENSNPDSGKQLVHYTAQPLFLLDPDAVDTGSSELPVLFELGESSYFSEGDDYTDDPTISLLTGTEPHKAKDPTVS

[18] = viability of PTEN-deleted HCT116 cells – cell-based, HCT116 PTEN knockout, dose response (AID 1047); format: functional;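 note: HCT116 colon tumor cells with PTEN knocked out; cells exposed to compound for 60 hours before readout; potency for loss of cell viability measured by luminescence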
[19] = general cell-killing toxicity readout – plate reader, dry powder samples, cytotoxicity control for PAX8 inhibitor project, dose response (AID 743021); format: functional, cell-based
[20] = viability of HCT116 lacking mutant beta-catenin – cell-based, human colon tumor, dose response (AID 1045); format: functional;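 note: HCT116 colon tumor cells with beta catenin knocked out; cells exposed to compound for 60 hours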
BJ [21] = assay: growth inhibition of engineered Ras-driven BJ cells – cell-based, alamar blue fluorescence, cherrypicked samples, dose response (AID 2631); format: functional; conditions: Homo sapiens;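 note: confirmatory dose-response assay in RAS-dependent BJ fibroblasts engineered with TERT, LT and ST, with cytotoxicity read by fluorescence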
[22] = target: Glutathione S-transferase omega-1 (Homo sapiens, UniProt P78417); assay: IC50 of human GSTO1 inhibition by gel ABPP – biochemical, SE-Rh probe, in-gel fluorescence, powder samples, late-stage follow-up (AID 463081); format: functional
Sequence of Glutathione S-transferase omega-1 (P78417 whole entry): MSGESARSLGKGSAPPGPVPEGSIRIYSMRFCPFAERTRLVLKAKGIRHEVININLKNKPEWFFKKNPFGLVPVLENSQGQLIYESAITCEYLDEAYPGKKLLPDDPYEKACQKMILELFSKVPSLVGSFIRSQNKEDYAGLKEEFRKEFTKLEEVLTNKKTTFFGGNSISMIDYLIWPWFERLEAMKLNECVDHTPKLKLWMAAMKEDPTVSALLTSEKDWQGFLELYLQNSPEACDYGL

Sequence of Benomyl/methotrexate resistance protein (P28873 whole entry): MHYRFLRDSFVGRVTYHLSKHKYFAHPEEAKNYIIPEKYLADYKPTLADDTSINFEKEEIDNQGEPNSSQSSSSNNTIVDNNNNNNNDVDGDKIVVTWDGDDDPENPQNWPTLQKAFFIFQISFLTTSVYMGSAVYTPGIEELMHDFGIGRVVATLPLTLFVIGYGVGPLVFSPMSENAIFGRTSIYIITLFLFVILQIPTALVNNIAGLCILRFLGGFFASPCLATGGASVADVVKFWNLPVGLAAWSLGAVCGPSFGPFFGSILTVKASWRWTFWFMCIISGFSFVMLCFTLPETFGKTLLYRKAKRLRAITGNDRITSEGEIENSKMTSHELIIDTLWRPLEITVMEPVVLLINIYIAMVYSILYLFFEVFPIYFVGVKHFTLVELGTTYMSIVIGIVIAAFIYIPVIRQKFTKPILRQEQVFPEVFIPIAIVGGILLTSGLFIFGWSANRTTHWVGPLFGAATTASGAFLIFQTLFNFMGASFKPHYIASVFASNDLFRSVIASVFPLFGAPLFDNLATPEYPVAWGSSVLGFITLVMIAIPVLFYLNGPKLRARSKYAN

For `COc1ccc2nc(C)cc(Sc3nc4ccccc4s3)c2c1`, the CC50 [1] was 26.4 µM (active), the EC50 [2] was 0.479 µM (active) and the EC50 (Protein RecA) was 2.89 µM (active). For the same molecule, the AC50 [3] was 2.87 µM (active), the CC50 (Vero) was 14.3 µM (active) and the IC50 [4] was > 80 µM (inactive). For the same molecule, the IC50 [5] was 1.91 µM (active).

In the case of `CCCCN=c1nc(S)n(-c2ccccc2)c(C)c1C(C)=O`, the AC50 [6] is reported as > 350 µM (inactive), the AC50 [7] is reported as > 350 µM (inactive) and the AC50 [8] is reported as > 350 µM (inactive).

For `Cc1ccc(OCCc2ccc(Cl)cc2Cl)c([N+](=O)[O-])n1`, the EC50 [9] was 2.1 µM (active).

In the case of `Cc1cc(C)c2sc(N(CCCN(C)C)C(=O)c3ccc(S(=O)(=O)N4CCc5ccccc5C4)cc3)nc2c1`, the EC50 (BJ [10]) is reported as 2.54 µM (inconclusive), the EC50 [11] is reported as > 100 µM (inactive) and the EC50 (BJ [12]) is reported as 9.56 µM (active). For the same molecule, the EC50 (BJ [13]) was 1.57 µM (active), the IC50 [14] was 10 µM (active) and the IC50 [15] was 4.64 µM (active). The IC50 (Bcl-2-related protein A1) was > 20 µM (inactive) and the EC50 [16] was 3.68 µM (active).

With `COc1ccc(C(C(=O)NC2CCCCC2)N(C(=O)CCl)c2cccc(Cl)c2)cc1` (stereo unspecified) the EC50 (BJ [10]) was 4.57 µM (active), the EC50 (Protein RecA) was 0.202 µM (active) and the AC50 (Paired box protein Pax-8) was < 0.5 µM (active). The EC50 (BJ [12]) was 0.987 µM (inconclusive), the EC50 [17] was 0.691 µM (active) and the EC50 [18] was 1.36 µM (active). The AC50 [19] was 1.02 µM (active), the EC50 (BJ [13]) was 0.176 µM (inconclusive) and the EC50 [20] was 1.09 µM (active). For the same molecule, the EC50 (BJ [21]) was 0.122 µM (active), the IC50 [22] was 0.032 µM (active) and the EC50 [16] was 0.518 µM (active).
